Data taken from publication PMC6579470, “A low-potential terminal oxidase associated with the iron-only nitrogenase from the nitrogen-fixing bacterium Azotobacter vinelandii” (The Journal of Biological Chemistry, 2019).

Experiments:
Anf3 = molecular target: T1, Anf3 (Azotobacter vinelandii, UniProt C1DK98); assay: X-ray crystal structure of the complex; format: binding; conditions: protein isolated with bound FAD; FAD stacks on heme; crystals at 16 °C, 25.5% PEG 4000, 170 mM ammonium sulfate
T1 construct: gene Avin_49040; full-length anf3, N-terminal His6 tag cut off with thrombin; E. coli KRX; intertwined homodimer; cofactors contact both monomers

[1] = molecular target: Anf3 from Azotobacter vinelandii (Azotobacter vinelandii); assay: crystal structure; hanging-drop vapor diffusion, 25.5% PEG 4000, 170 mM ammonium sulfate, 16 °C; space group P2(1); the asymmetric unit contains a dimer

T1 sequence (C1DK98 entry or part of it): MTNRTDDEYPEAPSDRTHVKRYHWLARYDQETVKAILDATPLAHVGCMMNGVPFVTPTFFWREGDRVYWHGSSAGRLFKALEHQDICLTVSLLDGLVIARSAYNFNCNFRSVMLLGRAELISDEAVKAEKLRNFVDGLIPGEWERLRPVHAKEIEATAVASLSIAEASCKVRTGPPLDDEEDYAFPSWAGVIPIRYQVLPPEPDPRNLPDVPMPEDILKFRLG

Molecule	X-ray crystal structure of the complex (Anf3)	stoichiometry N [1]
Cc1cc2nc3c(=O)[nH]c(=O)nc-3n(C[C@H](O)[C@H](O)[C@H](O)COP(=O)(O)OP(=O)(O)OC[C@H]3O[C@@H](n4cnc5c(N)ncnc54)[C@H](O)[C@@H]3O)c2cc1C [FAD]	Each monomer core is a split-barrel flavin-binding domain that binds an FAD	–
Anf3 from Azotobacter vinelandii (enzyme)	–	2
